For assay [1], the target named is T1, DAGLβ (Mus musculus, UniProt Q91WC9).
T1 sequence (Q91WC9 1-669): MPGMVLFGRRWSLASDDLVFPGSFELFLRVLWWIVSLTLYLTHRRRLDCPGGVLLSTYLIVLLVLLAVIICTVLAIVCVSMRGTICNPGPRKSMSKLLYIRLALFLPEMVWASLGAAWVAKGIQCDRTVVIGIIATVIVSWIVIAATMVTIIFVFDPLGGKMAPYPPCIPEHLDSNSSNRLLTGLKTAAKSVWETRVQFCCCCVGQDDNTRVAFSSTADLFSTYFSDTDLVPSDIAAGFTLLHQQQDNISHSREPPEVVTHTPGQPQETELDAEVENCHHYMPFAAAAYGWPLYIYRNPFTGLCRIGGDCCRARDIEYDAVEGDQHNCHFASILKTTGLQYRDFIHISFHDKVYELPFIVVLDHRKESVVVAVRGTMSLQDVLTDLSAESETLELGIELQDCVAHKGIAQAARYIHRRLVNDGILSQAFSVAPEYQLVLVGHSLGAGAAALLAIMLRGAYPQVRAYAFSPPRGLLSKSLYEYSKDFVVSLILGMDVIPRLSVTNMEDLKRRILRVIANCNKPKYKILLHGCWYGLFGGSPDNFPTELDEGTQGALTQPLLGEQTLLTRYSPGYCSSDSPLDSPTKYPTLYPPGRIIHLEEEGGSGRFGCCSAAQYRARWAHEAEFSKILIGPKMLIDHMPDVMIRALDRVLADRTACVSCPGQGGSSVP
The assay is described as follows: inhibition of DAGLβ in transfected HEK293T lysate. The format is biochemical.

In assay [2] the target is T1, DAGLβ. In words: competitive ABPP on DAGLβ-transfected HEK293T proteome. The format is biochemical.
The target of a further assay is T2, ABHD6 (Mus musculus, UniProt Q8R2Y0).
T2 sequence (Q8R2Y0 1-336): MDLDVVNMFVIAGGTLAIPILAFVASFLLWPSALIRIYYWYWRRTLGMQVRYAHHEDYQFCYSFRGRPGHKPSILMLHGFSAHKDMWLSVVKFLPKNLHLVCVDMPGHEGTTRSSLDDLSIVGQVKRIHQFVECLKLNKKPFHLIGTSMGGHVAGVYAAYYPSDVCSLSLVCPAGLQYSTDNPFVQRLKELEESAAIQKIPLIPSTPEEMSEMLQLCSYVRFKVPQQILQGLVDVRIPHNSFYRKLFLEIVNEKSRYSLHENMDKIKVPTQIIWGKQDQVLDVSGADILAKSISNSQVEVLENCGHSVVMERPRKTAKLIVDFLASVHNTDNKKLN
The assay is described as follows: competitive ABPP in mouse brain proteome. The format is biochemical.

Another assay deals with T3, human DAGLβ (Homo sapiens, UniProt Q8NCG7).
T3 sequence (Q8NCG7 1-672): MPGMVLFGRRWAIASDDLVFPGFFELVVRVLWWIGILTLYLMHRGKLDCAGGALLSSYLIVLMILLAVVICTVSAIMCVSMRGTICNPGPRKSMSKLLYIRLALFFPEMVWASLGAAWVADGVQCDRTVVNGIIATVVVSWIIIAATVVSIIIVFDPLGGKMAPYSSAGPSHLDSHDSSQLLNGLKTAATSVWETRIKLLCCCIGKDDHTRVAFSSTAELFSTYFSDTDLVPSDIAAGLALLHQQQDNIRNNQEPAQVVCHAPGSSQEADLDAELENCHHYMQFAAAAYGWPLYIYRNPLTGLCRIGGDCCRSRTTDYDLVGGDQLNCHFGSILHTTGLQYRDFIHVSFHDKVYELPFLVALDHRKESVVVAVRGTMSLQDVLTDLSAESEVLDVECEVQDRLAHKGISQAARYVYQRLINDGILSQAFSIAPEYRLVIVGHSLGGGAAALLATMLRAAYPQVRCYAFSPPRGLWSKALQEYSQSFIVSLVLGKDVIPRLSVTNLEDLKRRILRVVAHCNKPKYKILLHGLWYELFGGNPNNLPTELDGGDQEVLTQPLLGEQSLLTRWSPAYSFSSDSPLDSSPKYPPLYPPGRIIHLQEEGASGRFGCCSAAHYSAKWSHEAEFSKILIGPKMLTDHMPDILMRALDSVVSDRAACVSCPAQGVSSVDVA
The assay is described as follows: in vitro inhibition of human DAGLβ activity. It counts as cell-based.

The structures appear in SMILES notation.

A word on the IC50: it is the concentration needed to halve the response being measured. Read a low IC50 as inhibition by little substance.

`O=C(N1CCCCC1Cc1ccccc1)n1cc(-c2ccc(Br)cc2)nn1` (stereo not shown) [compound 31, KT116] gave a half-maximal inhibitory concentration (IC50) against DAGLβ [1] of 0.03 µM.

As to `O=C(N1CCCCC1Cc1ccccc1)n1cc(-c2ccc(-c3ccccc3)cc2)nn1` (stereo not shown) [compound 32, KT109], the IC50 at DAGLβ [2] was 0.042 µM; on ABHD6, 0.016 µM; against human DAGLβ, 0.58 µM.

The values are drawn from paper PMC3513945 (Nature chemical biology, 2012).
